# Results: PubChem BioAssay (NCI)
#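 At the GI50, growth is halved. TGI is the concentration that stops growth completely.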
# Assays:
# Test in all cases: DTP human tumour cell line panel, 384-well format
# NCI-H460 NSCLC = test system: NCI-H460 NSCLC
# SNB-19 CNS = test system: SNB-19 CNS
# MALME-3M melanoma = test system: MALME-3M melanoma
# EKVX NSCLC = test system: EKVX NSCLC
# HCC-2998 colon = test system: HCC-2998 colon
# LOX IMVI melanoma = test system: LOX IMVI melanoma
# 786-0 renal = test system: 786-0 renal
# NCI-H322M lung = test system: NCI-H322M lung
# SK-MEL-28 melanoma = test system: SK-MEL-28 melanoma
# UACC-257 melanoma = test system: UACC-257 melanoma
# DU-145 prostate = test system: DU-145 prostate
# HOP-62 NSCLC = test system: HOP-62 NSCLC
# HCT-15 colon = test system: HCT-15 colon
# SF-539 CNS = test system: SF-539 CNS
# RPMI-8226 leukemia = test system: RPMI-8226 leukemia
# T-47D breast = test system: T-47D breast
# NCI-H226 lung = test system: NCI-H226 lung
# MDA-MB-231 breast = test system: MDA-MB-231 breast
# SN12C renal = test system: SN12C renal
# COLO 205 colon = test system: COLO 205 colon
# SK-OV-3 ovarian = test system: SK-OV-3 ovarian
# SF-295 CNS = test system: SF-295 CNS
# NCI-H522 lung = test system: NCI-H522 lung
# UACC-62 melanoma = test system: UACC-62 melanoma
# PC-3 prostate = test system: PC-3 prostate
# HS 578T breast = test system: HS 578T breast
# TK-10 renal = test system: TK-10 renal
# NCI/ADR-RES ovarian = test system: NCI/ADR-RES ovarian
structure (smiles),measurement,setting,value
CCC[C@H](N[C@@H]1CCc2cc(F)cc(F)c2C1)C(=O)Nc1cn(C(C)(C)CNCC(C)(C)C)cn1,GI50,NCI-H460 NSCLC,14.9 µM
same,TGI,NCI-H460 NSCLC,28.9 µM
same,GI50,SNB-19 CNS,16.8 µM
same,TGI,SNB-19 CNS,39.7 µM
same,GI50,MALME-3M melanoma,2.14 µM
same,TGI,MALME-3M melanoma,12.2 µM
same,GI50,EKVX NSCLC,14.5 µM
same,TGI,EKVX NSCLC,44.7 µM
same,GI50,HCC-2998 colon,6.98 µM
same,TGI,HCC-2998 colon,19.9 µM
same,GI50,LOX IMVI melanoma,17.8 µM
same,TGI,LOX IMVI melanoma,31.9 µM
same,GI50,786-0 renal,13.4 µM
same,TGI,786-0 renal,26.5 µM
same,GI50,NCI-H322M lung,20.8 µM
same,TGI,NCI-H322M lung,55.4 µM
same,GI50,SK-MEL-28 melanoma,12.7 µM
same,TGI,SK-MEL-28 melanoma,25.9 µM
same,GI50,UACC-257 melanoma,0.535 µM
same,TGI,UACC-257 melanoma,18.4 µM
same,GI50,DU-145 prostate,17.2 µM
same,TGI,DU-145 prostate,48.8 µM
same,GI50,HOP-62 NSCLC,15.6 µM
same,TGI,HOP-62 NSCLC,30.1 µM
same,GI50,HCT-15 colon,8.15 µM
same,TGI,HCT-15 colon,21.3 µM
same,GI50,SF-539 CNS,16.5 µM
same,TGI,SF-539 CNS,30.3 µM
same,GI50,RPMI-8226 leukemia,0.358 µM
same,TGI,RPMI-8226 leukemia,11.2 µM
same,GI50,T-47D breast,2.11 µM
same,TGI,T-47D breast,17 µM
same,GI50,NCI-H226 lung,13.8 µM
same,TGI,NCI-H226 lung,28.3 µM
same,GI50,MDA-MB-231 breast,12.3 µM
same,TGI,MDA-MB-231 breast,27.1 µM
same,GI50,SN12C renal,19.4 µM
same,TGI,SN12C renal,42.9 µM
same,GI50,COLO 205 colon,13.1 µM
same,TGI,COLO 205 colon,36.1 µM
same,GI50,SK-OV-3 ovarian,14.2 µM
same,TGI,SK-OV-3 ovarian,29.5 µM
same,GI50,SF-295 CNS,13.8 µM
same,TGI,SF-295 CNS,26.9 µM
same,GI50,NCI-H522 lung,13.2 µM
same,TGI,NCI-H522 lung,28.8 µM
same,GI50,UACC-62 melanoma,15.7 µM
same,TGI,UACC-62 melanoma,29.3 µM
same,GI50,PC-3 prostate,7.53 µM
same,TGI,PC-3 prostate,21.4 µM
same,GI50,HS 578T breast,12.3 µM
same,TGI,HS 578T breast,25.1 µM
same,GI50,TK-10 renal,16 µM
same,TGI,TK-10 renal,46 µM
same,GI50,NCI/ADR-RES ovarian,10.9 µM
same,TGI,NCI/ADR-RES ovarian,24.3 µM
